Data on nine compounds can be found in patent publication US5703109A, “Selective aromatase inhibiting compounds” (Oy; Orion-yhtyma, priority 1992, dated 1997).

Data set [1] addresses T1, human aromatase (Homo sapiens, UniProt P11511).
T1 construct: The enzyme preparation was used without further purification; from tissue; host or cells: human placenta, microsomal fraction (100000×g precipitate)
T1 sequence (P11511 1-503): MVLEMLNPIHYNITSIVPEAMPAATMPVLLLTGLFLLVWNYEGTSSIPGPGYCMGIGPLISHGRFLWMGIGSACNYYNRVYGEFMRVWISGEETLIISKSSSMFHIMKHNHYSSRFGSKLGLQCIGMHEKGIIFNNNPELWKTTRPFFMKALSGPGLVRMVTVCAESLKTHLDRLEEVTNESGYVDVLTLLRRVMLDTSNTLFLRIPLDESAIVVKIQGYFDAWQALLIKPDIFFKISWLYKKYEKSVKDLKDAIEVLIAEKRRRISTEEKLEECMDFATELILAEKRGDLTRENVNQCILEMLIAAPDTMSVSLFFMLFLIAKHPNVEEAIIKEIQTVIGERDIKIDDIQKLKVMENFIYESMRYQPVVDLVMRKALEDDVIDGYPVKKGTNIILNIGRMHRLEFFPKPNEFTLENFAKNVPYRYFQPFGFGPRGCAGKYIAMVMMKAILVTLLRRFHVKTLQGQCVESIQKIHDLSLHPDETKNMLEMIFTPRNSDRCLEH
Kind of data set: Inhibition of human aromatase (3H2O release from 1,2[3H]-androstene-3,17-dione, human placenta microsomes). In kind it is biochemical. To be noted: human placental microsomes, 37° C., 40 min; read-out: AROMATASE IC-50. As to the method:
Human aromatase enzyme was used. The enzyme was prepared from human placenta, which is rich of the enzyme. Microsomal fraction (100000×g precipitate) was prepared by centrifugation. The enzyme preparation was used without further purification. Test compounds listed in Table 1 were added together with 100000 dpm of 1,2[^3 H]-androstene-3,17-dione and NADPH generating system. The concentrations of the test compounds were 0.001; 0.01; 0.1 and 1.0 mM. The incubation was carried out at 37° C. for 40 min. […] Radioactivity was counted by a liquid scintillation counter. Aromatase inhibition was evaluated by comparing the ^3 H2 O-radioactivity of inhibitor treated samples to controls containing no inhibitor. IC-50 values were calculated as concentrations which inhibited the enzyme activity 50%.

Data set [2] concerns the target desmolase. In words: Inhibition of desmolase (cholesterol side chain cleavage, SCC, activity). The format is biochemical. To be noted: mitochondrial fraction from human placenta or bovine adrenals, 37° C., 30 min; read-out: DESMOLASE IC-50. As to the method: Incubations were carried out in 1,5 ml Eppendorf plastic robes, and an Eppendoff shaker, centrifuge and incubator were used as a unit. […] Controls contained all the above substances but the enzyme preparation was inactivated prior to the incubation by the addition of 900 μl of methanol. The mitochondrial fraction (1 mg protein) from human placenta or bovine adrenals was used as a source of enzyme. After 30 min incubation at 37° C., the reaction was terminated by the addition of 900 μl of methanol; 1500 dpm of marker ^14 C-4-pregnenolone was added to each incubate and the robes were vigorously shaken. […] The column was washed with one ml of 75% methanol and then with 3 ml of 80% methanol The 80% methanol eluate was run into the counting vial and 10 ml of scintillation liquid was added. Radioactivity was counted using a double-label program on a liquid scintillation counter (LKB RackBeta).
In inhibition experiments, the substance (final concentration range from 1 to 1000 μM) was added into incubation mixture in a volume of 10-20 μl, usually as methanol or ethanol solution. The same volume of the solute was added into control incubation vial.

The nature of data set [3]: Acute toxicity, LD50, oral, in mice. In kind it is in vivo. To be noted: young adult female NMRI mice. An excerpt:
[…]. The administration of the test compound was oral.

pIC50: −log10 of the molar value.

For `N#Cc1ccc(C(CC(O)c2ccc(F)cc2)n2cncn2)cc1` (centres unmarked) [Compound 6, 1-[1-(4-cyanophenyl)-3-(4-fluorophenyl)-3-hydroxypropyl]-1,2,4-triazole], the results for the pIC50 in data set [1] and in data set [2] were 6.52 and 3.42, respectively.

Consider `N#Cc1ccc(C(O)(CCc2ccc(F)cc2)c2cncs2)cc1` (centres unmarked) [Compound 9, 5-[1-(4-cyanophenyl)-3-(4-fluorophenyl)-1-hydroxypropyl]thiazole], for which the pIC50 is 6.55 in data set [1] and 3.52 in data set [2].

For the compound `N#Cc1ccc(C(=CCc2ccc(F)cc2)n2cncn2)cc1` (single isomer, unassigned; isomer b) [Compound 8, 1-[1-(4-cyanophenyl)-3-(4-fluorophenyl)-1-propenyl]-1,2,4-triazole, isomer b], the pIC50 in data set [2] is 3.78.

Regarding `N#Cc1ccc(C(CCCc2ccc(F)cc2)n2ccnc2)cc1` (centres unmarked) [Compound 1, 1-[1-(4-cyanophenyl)-4-(4-fluorophenyl)butyl]-1H-imidazole], the pIC50 in data set [2] was 4.77.

Consider `N#Cc1ccc(C(C(O)CCc2ccc(F)cc2)n2cncn2)cc1` (single isomer, unassigned) [Compound 5, 1-[1-(4-cyanophenyl)-4-(4-fluorophenyl)-2-hydroxybutyl]-1,2,4-triazole, diastereomer a + d], for which the pIC50 in data set [1] was 6.02; in data set [2] it was less than 3.00.

As for `N#Cc1ccc(C(=CCCc2ccc(F)cc2)n2cncn2)cc1` (single isomer, unassigned; isomer b) [Compound 3, 1-[1-(4-cyanophenyl)-4-(4-fluorophenyl)-1-butenyl]-1,2,4-triazole, isomer b], the pIC50 in data set [2] was 3.52.

`N#Cc1ccc(C(C(O)Cc2ccc(F)cc2)n2cncn2)cc1` (single isomer, unassigned) [Compound 4, 1-[1-(4-cyanophenyl)-3-(4-fluorophenyl)-2-hydroxypropyl]-1,2,4-triazole, diastereomer a + d]: the pIC50 in data set [1] is 6.59; in data set [2], less than 3.00. In data set [3] (highest dose tested 400 mg/kg), the “Acute toxicity (LD50 determination): tolerability of the highest dose tested” value is “well tolerated”. For the same compound, the “Acute toxicity (LD50 determination): adverse effects” value in data set [3] (up to 400 mg/kg) was “No adverse effects were seen”.

Turning to `N#Cc1ccc(C(C(=O)CCc2ccc(F)cc2)n2cncn2)cc1` (centres unmarked) [Compound 7, 1-[1-(-4-cyanophenyl)-4-(4-fluorophenyl)-2-oxobutyl]-1,2,4-triazole], the pIC50 is 6.05 in data set [1] and 3.76 in data set [2].

In the case of `N#Cc1ccc(C(C(O)CCc2ccc(F)cc2)n2ccnc2)cc1` (single isomer, unassigned) [Compound 2, 1-[1-(4-cyanophenyl)-4-(4-fluorophenyl)-2-hydroxybutyl]-1H-imidazole, diastereomer a + d], the pIC50 is 6.74 in data set [1] and 4.31 in data set [2].
